# Measurements taken from patent US20190233409A1, “SUBSTITUTED 2,3,4,5-TETRAHYDRO-1H-PYRIDO[4,3-B]INDOLES, METHODS FOR USE THEREOF” (priority 2017, published 2019).
# Structures can show the parent of a compound that is named as a salt.
# Test system: BALB/c male mice
# Test: Passive Avoidance of Mice in a Shuttle Chamber, memory disturbed by scopolamine (Example 7)
# Type: in vivo
# Settings: scopolamine 0.3 mg/kg, injected 30 minutes before training
# Method: Example 7. […] A shuttle chamber (Ugo Basile, Italy) consisted of two sections was used. […] The sections were connected via a hole which could be shut with a vertical door. The floor was made of transverse metal bars on which DC current impulses could be fed. Experiments were carried out on aged male mice of line BALB/c weighing 20-24 grams. […] Each group consisted of at least 8 animals. The animals were placed in the light section, and the latent period of the first entry into the dark chamber was registered. Then the vertical door was closed and the animal was punished by 0.6 mA DC current for 3 seconds. After that the animal was carried back to its living cell. In 22-24 hours the same animal was placed in the light section of the shuttle chamber once again and the latent period before its entry into the dark section, the total time of its stay in the light section and the number of entries into the dark section were registered. Each observation lasted for 5 minutes. The experiment was carried out during the day time in an isolated laboratory using white noise at a level of about 70 decibel above the human hearing threshold. Scopolamine causes the disturbance of training (memory loss) which results in […]. The fact that 5-HT6 receptor antagonists can improve the learning ability that has been disturbed by scopolamine is regarded as evidence for their nootropic effect.
row,SMILES,"nootropic action (passive avoidance, FIGS. 2-4)"
1,"Cc1ccc2c(c1)c1c(n2CCc2ccccn2)CCN(C)C1.Cl [1.2.1(4)HCl, 2,8-dimethyl-5-[2-(pyridin-2-yl)ethyl]-2,3,4,5-tetrahydro-1H-pyrido[4,3-b]indole hydrochloride]",exhibit a nootropic action which is the most prominent
2,"Cc1ccc2c(c1)c1c(n2CCc2ccncc2)CCN(C)C1.Cl [1.2.1(2)HCl, 2,8-dimethyl-5-[2-(pyridin-4-yl)ethyl]-2,3,4,5-tetrahydro-1H-pyrido[4,3-b]indole hydrochloride]",exhibit a nootropic action which is the most prominent

# Test system: SHK male mice
# Test: Recognition of New Objects by Mice Under Scopolamine and MK-801
# Type: in vivo
# Settings: scopolamine 1 mg/kg and MK-801 0.2 mg/kg
# Method: The experiments were carried out in a closed cross shaped labyrinth which consisted of 4 peripheral sections connected with the central chamber via a 7×7 cm hole. The labyrinth was made of black plastic and its sections were of 14×14×14 cm size. The top cover of the labyrinth was transparent.
# A mouse was placed in the central section of the labyrinth and allowed to investigate the environment. A mouse was considered to have entered a section once all of its four paws were inside the chamber. A test was considered to be completed when the mouse had moved 12 times between the sections, having made a total of 13 visits. The floor of the labyrinth was cleaned after each animal.
# With each mouse the test was carried out twice with 1 hour interval.
# During the first test, each section of the labyrinth contained a circular plastic cup of 3 cm height and 7 cm diameter. During the second test the cover in each of the two opposing sections was replaced by a conical glass bulb of 7 cm height and 4 cm across the bottom. The time that the mice spent in each section of the labyrinth was registered and the index of new object recognition was calculated as the ratio of the time spent in the sections with the bulbs to the time spent in all sections of the labyrinth. If no preference is given to the sections with new objects the index is 0.5.
# When new objects appear the mice spend more time in the section containing them that results in an increased recognition index. Scopolamine (1 mg/kg) and MK-801 (0.2 mg/kg) disturbed learning (memory) that leads to lowering of the recognition index.
row,SMILES,"nootropic action (new object recognition, FIG. 13-14)"
1,CC12CC3CC(C)(C1)CC(N)(C3)C2 [memantine],nootropic action

# Test system: calcium canals regulated by the intracellular calcium depot
# Test: Histamine-induced calcium stream in SK-N-SH cells, Phase 2 (lowering of intracellular calcium concentration)
# Type: cell-based
# Settings: Homo sapiens, 10 μM histamine, Fura 2 AM, Phase 2: discharge of intraplasmatic calcium
row,EC50,SMILES
1,0.73 µM,"Cc1ccc(CCn2c3c(c4cc(F)ccc42)CN(C)CC3)cn1 [1.2.1(11)HCl, 2-methyl-5-[2-(6-methylpyridin-3-yl)ethyl]-8-fluoro-2,3,4,5-tetrahydro-1H-pyrido[4,3-b]indole hydrochloride]"
2,0.579 µM,"Cc1ccc2c(c1)c1c(n2CCc2cccnc2)CCN(C)C1 [1.2.1(3)HCl, 2,8-dimethyl-5-[2-(pyridin-3-yl)ethyl]-2,3,4,5-tetrahydro-1H-pyrido[4,3-b]indole hydrochloride]"
3,> 10 µM,"CN1CCc2c(c3ccccc3n2C#Cc2cccnc2)C1 [1.3(3), 2-methyl-5-(pyridin-3-ylethynyl)-2,3,4,5-tetrahydro-1H-pyrido[4,3-b]indole]"
4,0.93 µM,"CN1CCc2c(c3ccccc3n2CCc2ccccn2)C1 [1.2(4)HCl, 2-methyl-5-[2-(pyridin-2-yl)ethyl]-2,3,4,5-tetrahydro-1H-pyrido[4,3-b]indole hydrochloride]"
5,0.25 µM,CN1CCc2c(c3cccc(F)c3n2CCc2ccccc2)C1 [1.2.2(1)HCl]
6,10 µM,"Cc1ccc2c(c1)c1c(n2CCc2ccccn2)CCN(C)C1.Cl [1.2.1(4)HCl, 2,8-dimethyl-5-[2-(pyridin-2-yl)ethyl]-2,3,4,5-tetrahydro-1H-pyrido[4,3-b]indole hydrochloride]"
7,0.19 µM,"CN1CCc2c(c3cc(F)ccc3n2/C=C\c2cccc(F)c2)C1 [1.1.1(6), cis-2-methyl-5-[2-(3-fluorophenyl)ethenyl]-8-fluoro-2,3,4,5-tetrahydro-1H-pyrido[4,3-b]indole]"
8,> 10 µM,"Cc1ccc2c(c1)c1c(n2C#Cc2ccccc2)CCN(C)C1 [1.3.1(5), 2,8-dimethyl-5-phenylethynyl-2,3,4,5-tetrahydro-1H-pyrido[4,3-b]indole]"
9,0.15 µM,"CN1CCc2c(c3cc(F)ccc3n2/C=C\c2ccccc2)C1 [1.1.1(1), cis-2-methyl-5-(2-phenylethenyl)-8-fluoro-2,3,4,5-tetrahydro-1H-pyrido[4,3-b]indole]"
10,0.61 µM,"CN1CCc2c(c3cc(F)ccc3n2CCc2ccccn2)C1 [1.2.1(10)HCl, 2-methyl-5-[2-(pyridin-2-yl)ethyl]-8-fluoro-2,3,4,5-tetrahydro-1H-pyrido[4,3-b]indole hydrochloride]"
11,0.47 µM,"CN1CCc2c(c3cc(F)ccc3n2CCc2ccncc2)C1 [1.2.1(8)HCl, 2-methyl-5-[2-(pyridin-4-yl)ethyl]-8-fluoro-2,3,4,5-tetrahydro-1H-pyrido[4,3-b]indole hydrochloride]"
12,10.1 µM,"CN1CCc2c(c3ccccc3n2C#Cc2ccccc2)C1 [1.3(1), 2-methyl-5-phenylethynyl-2,3,4,5-tetrahydro-1H-pyrido[4,3-b]indole]"
13,0.18 µM,"CN1CCc2c(c3ccccc3n2/C=C\c2ccccc2)C1 [1.1(1), cis-2-methyl-5-(2-phenylethenyl)-2,3,4,5-tetrahydro-1H-pyrido[4,3-b]indole]"
14,> 10 µM,"Cc1ccc2c(c1)c1c(n2C#Cc2cccnc2)CCN(C)C1 [1.3.1(7), 2,8-dimethyl-5-(pyridin-3-ylethynyl)-2,3,4,5-tetrahydro-1H-pyrido[4,3-b]indole]"
15,0.154 µM,"Cc1ccc2c(c1)c1c(n2/C=C\c2ccccc2)CCN(C)C1 [1.1.1(3), cis-2,8-dimethyl-5-(2-phenylethenyl)-2,3,4,5-tetrahydro-1H-pyrido[4,3-b]indole]"
16,> 10 µM,"CN1CCc2c(c3cc(F)ccc3n2/C=C\c2cccnc2)C1 [1.1.1(2), cis-2-methyl-5-[2-(pyridin-3-yl)ethenyl]-8-fluoro-2,3,4,5-tetrahydro-1H-pyrido[4,3-b]indole]"
17,> 10 µM,"CN1CCc2c(c3ccccc3n2/C=C\c2cccnc2)C1 [1.1(4), cis-2-methyl-5-[2-(pyridin-3-yl)ethenyl]-2,3,4,5-tetrahydro-1H-pyrido[4,3-b]indole]"
18,> 10 µM,"CN1CCc2c(c3cc(F)ccc3n2C#Cc2cccnc2)C1 [1.3.1(3), 2-methyl-5-(pyridin-3-ylethynyl)-8-fluoro-2,3,4,5-tetrahydro-1H-pyrido[4,3-b]indole]"
19,0.5 µM,"CN1CCc2c(c3ccccc3n2CCc2ccncc2)C1 [1.2(2)HCl, 2-methyl-5-[2-(pyridin-4-yl)ethyl]-2,3,4,5-tetrahydro-1H-pyrido[4,3-b]indole hydrochloride]"
20,> 10 µM,"CN1CCc2c(c3ccccc3n2/C=C/c2ccncc2)C1 [1.1(3), trans-2-methyl-5-[2-(pyridin-4-yl)ethenyl]-2,3,4,5-tetrahydro-1H-pyrido[4,3-b]indole]"
21,7.94 µM,"Cc1ccc2c(c1)c1c(n2CCc2cnccn2)CCN(C)C1 [1.2.1(6), 2,8-dimethyl-5-[2-(pyrazin-2-yl)ethyl]-2,3,4,5-tetrahydro-1H-pyrido[4,3-b]indole]"
22,0.412 µM,"CN1CCc2c(c3ccccc3n2CCc2cccnc2)C1 [1.2(3)HCl, 2-methyl-5-[2-(pyridin-3-yl)ethyl]-2,3,4,5-tetrahydro-1H-pyrido[4,3-b]indole hydrochloride]"
23,0.297 µM,"CN1CCc2c(c3cc(F)ccc3n2CCc2cccnc2)C1 [1.2.1(9)HCl, 2-methyl-5-[2-(pyridin-3-yl)ethyl]-8-fluoro-2,3,4,5-tetrahydro-1H-pyrido[4,3-b]indole hydrochloride]"
24,> 10 µM,"CN1CCc2c(c3ccccc3n2/C=C/c2ccccn2)C1 [1.1(5), trans-2-methyl-5-[2-(pyridin-2-yl)ethenyl]-2,3,4,5-tetrahydro-1H-pyrido[4,3-b]indole]"
25,0.13 µM,"CN1CCc2c(c3cc(F)ccc3n2CCc2ccccc2)C1 [1.2.1(7)HCl, 2-methyl-5-(2-phenylethyl)-8 fluoro-2,3,4,5-tetrahydro-1H-pyrido[4,3-b]indole hydrochloride]"
26,2.13 µM,"CN1CCc2c(c3ccccc3n2/C=C/c2ccccc2)C1 [1.1(2), trans-2-methyl-5-(2-phenylethenyl)-2,3,4,5-tetrahydro-1H-pyrido[4,3-b]indole]"
27,3.98 µM,"Cc1ccc2c(c1)c1c(n2CCc2ccncc2)CCN(C)C1.Cl [1.2.1(2)HCl, 2,8-dimethyl-5-[2-(pyridin-4-yl)ethyl]-2,3,4,5-tetrahydro-1H-pyrido[4,3-b]indole hydrochloride]"
